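Compound exposure: 48 hours, 5 concentrations, 96-well plates. Here, GI50 denotes the concentration required for 50% inhibition of growth.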 Activity calls are given as the source filed them. Cut-off read from the data, not from the text of the source: active = GI50 up to about 1.1 µM and inactive = higher.
How the values were obtained:
Experiment in all cases: NCI anticancer screen, dose series, 48 h
OVCAR-4 = system: OVCAR-4
TK-10 = system: TK-10
COLO 205 = system: COLO 205
SK-OV-3 = system: SK-OV-3
NCI-H23 = system: NCI-H23
EKVX = system: EKVX
SR = system: SR
SK-MEL-2 = system: SK-MEL-2
A498 = system: A498
LXFL 529 = system: LXFL 529
K562 = system: K562
SNB-75 = system: SNB-75
UACC-257 = system: UACC-257
HOP-92 = system: HOP-92
M19-MEL = system: M19-MEL
Malme-3M = system: Malme-3M
OVCAR-3 = system: OVCAR-3
A549 = system: A549
HCT-116 = system: HCT-116
NCI-H460 = system: NCI-H460
KM12 = system: KM12
OVCAR-8 = system: OVCAR-8
OVCAR-5 = system: OVCAR-5
HL-60 = system: HL-60
RXF 393 = system: RXF 393
SK-MEL-5 = system: SK-MEL-5
U-251 = system: U-251
HOP-62 = system: HOP-62
NCI-H226 = system: NCI-H226
CCRF-CEM = system: CCRF-CEM
SW-620 = system: SW-620
UACC-62 = system: UACC-62
786-0 = system: 786-0
M14 = system: M14
RPMI-8226 = system: RPMI-8226
IGROV-1 = system: IGROV-1
XF498 = system: XF498
SF-539 = system: SF-539
HT-29 = system: HT-29
MOLT-4 = system: MOLT-4
SK-MEL-28 = system: SK-MEL-28
SF-268 = system: SF-268
ACHN = system: ACHN
DLD-1 = system: DLD-1
SF-295 = system: SF-295
RXF 631 = system: RXF 631
KM-20L2 = system: KM-20L2
SNB-19 = system: SNB-19
UO-31 = system: UO-31
HCC 2998 = system: HCC 2998
HCT-15 = system: HCT-15
SN12C = system: SN12C
CAKI-1 = system: CAKI-1
LOX IMVI = system: LOX IMVI
SNB-78 = system: SNB-78
NCI-H522 = system: NCI-H522
HOP-18 = system: HOP-18
DMS-273 = system: DMS-273
DMS-114 = system: DMS-114

Compound: O=C(Nc1nc2ccc([N+](=O)[O-])cc2s1)C(=O)C(C1OC(=O)c2ccccc21)[N+](=O)[O-] (stereo not drawn)
- GI50 (OVCAR-4): > 100 µM (inactive)
- GI50 (TK-10): 69.2 µM (inactive)
- GI50 (COLO 205): > 100 µM (inactive)
- GI50 (SK-OV-3): 54.3 µM (inactive)
- GI50 (NCI-H23): 55.2 µM (inactive)
- GI50 (EKVX): 31.5 µM (inactive)
- GI50 (SR): 54.1 µM (inactive)
- GI50 (SK-MEL-2): 41.5 µM (inactive)
- GI50 (A498): 12.6 µM (inactive)
- GI50 (LXFL 529): 85.1 µM (inactive)
- GI50 (K562): 83.4 µM (inactive)
- GI50 (SNB-75): 35.6 µM (inactive)
- GI50 (UACC-257): > 100 µM (inactive)
- GI50 (HOP-92): 20.4 µM (inactive)
- GI50 (M19-MEL): > 100 µM (inactive)
- GI50 (Malme-3M): > 100 µM (inactive)
- GI50 (OVCAR-3): 71 µM (inactive)
- GI50 (A549): > 100 µM (inactive)
- GI50 (HCT-116): 97.5 µM (inactive)
- GI50 (NCI-H460): > 100 µM (inactive)
- GI50 (KM12): > 100 µM (inactive)
- GI50 (OVCAR-8): > 100 µM (inactive)
- GI50 (OVCAR-5): > 100 µM (inactive)
- GI50 (HL-60): 63.2 µM (inactive)
- GI50 (RXF 393): 27.5 µM (inactive)
- GI50 (SK-MEL-5): 64.6 µM (inactive)
- GI50 (U-251): 82.8 µM (inactive)
- GI50 (HOP-62): 31.9 µM (inactive)
- GI50 (NCI-H226): 55.8 µM (inactive)
- GI50 (CCRF-CEM): 63.2 µM (inactive)
- GI50 (SW-620): > 100 µM (inactive)
- GI50 (UACC-62): 65.8 µM (inactive)
- GI50 (786-0): > 100 µM (inactive)
- GI50 (M14): > 100 µM (inactive)
- GI50 (RPMI-8226): 56.2 µM (inactive)
- GI50 (IGROV-1): 42.2 µM (inactive)
- GI50 (XF498): 27.6 µM (inactive)
- GI50 (SF-539): 49.9 µM (inactive)
- GI50 (HT-29): > 100 µM (inactive)
- GI50 (MOLT-4): 88.5 µM (inactive)
- GI50 (SK-MEL-28): > 100 µM (inactive)
- GI50 (SF-268): 76.9 µM (inactive)
- GI50 (ACHN): 39.3 µM (inactive)
- GI50 (DLD-1): 64.6 µM (inactive)
- GI50 (SF-295): 91.2 µM (inactive)
- GI50 (RXF 631): 70.1 µM (inactive)
- GI50 (KM-20L2): > 100 µM (inactive)
- GI50 (SNB-19): 58.6 µM (inactive)
- GI50 (UO-31): 20.3 µM (inactive)
- GI50 (HCC 2998): > 100 µM (inactive)
- GI50 (HCT-15): 66.7 µM
- GI50 (SN12C): 75 µM (inactive)
- GI50 (CAKI-1): 70.1 µM (inactive)
- GI50 (LOX IMVI): > 100 µM (inactive)
- GI50 (SNB-78): 85.5 µM (inactive)

Compound: N#CCc1nc2c(s1)C(=O)c1ccccc1C2=O
- GI50 (OVCAR-4): 16.9 µM (inactive)
- GI50 (TK-10): 21.8 µM (inactive)
- GI50 (COLO 205): 18.7 µM (inactive)
- GI50 (SK-OV-3): > 100 µM (inactive)
- GI50 (NCI-H23): 17.5 µM (inactive)
- GI50 (EKVX): 14.4 µM (inactive)
- GI50 (NCI-H522): 14.7 µM (inactive)
- GI50 (SK-MEL-2): 17.3 µM (inactive)
- GI50 (A498): 32.7 µM (inactive)
- GI50 (LXFL 529): 15 µM (inactive)
- GI50 (K562): 11.8 µM (inactive)
- GI50 (SNB-75): 23.1 µM (inactive)
- GI50 (UACC-257): 15.2 µM (inactive)
- GI50 (HOP-92): 18.5 µM (inactive)
- GI50 (M19-MEL): 2.84 µM (inactive)
- GI50 (Malme-3M): 19.9 µM (inactive)
- GI50 (HOP-18): 13.8 µM (inactive)
- GI50 (OVCAR-3): 15.8 µM (inactive)
- GI50 (HCT-116): 14.3 µM (inactive)
- GI50 (NCI-H460): 21.7 µM (inactive)
- GI50 (KM12): 18.5 µM (inactive)
- GI50 (OVCAR-8): 10.8 µM (inactive)
- GI50 (OVCAR-5): 22.6 µM (inactive)
- GI50 (RXF 393): 30.6 µM (inactive)
- GI50 (SK-MEL-5): 11.4 µM (inactive)
- GI50 (U-251): 17.3 µM (inactive)
- GI50 (HOP-62): 15 µM (inactive)
- GI50 (NCI-H226): 19.8 µM (inactive)
- GI50 (DMS-273): 15.8 µM (inactive)
- GI50 (DMS-114): 6.24 µM (inactive)
- GI50 (SW-620): 19.1 µM (inactive)
- GI50 (UACC-62): 13.1 µM (inactive)
- GI50 (786-0): 16.4 µM (inactive)
- GI50 (M14): 15.2 µM (inactive)
- GI50 (RPMI-8226): 5.37 µM (inactive)
- GI50 (IGROV-1): 3.76 µM (inactive)
- GI50 (SF-539): 14.8 µM (inactive)
- GI50 (HT-29): 22.8 µM (inactive)
- GI50 (MOLT-4): 1.22 µM (inactive)
- GI50 (SK-MEL-28): 18.2 µM (inactive)
- GI50 (SF-268): 15.9 µM (inactive)
- GI50 (ACHN): 14.1 µM (inactive)
- GI50 (SF-295): 19.4 µM (inactive)
- GI50 (RXF 631): 18.2 µM (inactive)
- GI50 (KM-20L2): 38.4 µM (inactive)
- GI50 (SNB-19): 21.4 µM (inactive)
- GI50 (UO-31): 15.5 µM (inactive)
- GI50 (HCC 2998): 19.9 µM (inactive)
- GI50 (HCT-15): 16.3 µM
- GI50 (SN12C): 18.8 µM (inactive)
- GI50 (CAKI-1): 22.2 µM (inactive)
- GI50 (LOX IMVI): 13.5 µM (inactive)
- GI50 (SNB-78): 20 µM (inactive)

— ChEMBL document CHEMBL1201862, “PubChem BioAssay data set” (2004)
